Test results: patent US20240033319A1, “PEPTIDES FOR PREVENTING OR TREATING HEART AND BLOOD VESSEL DISEASES” (RD NÉPHROLOGIE, priority 2020, published 2024)
pEC50: −log10 of the molar value. No end group written: not given here.

Tests used:
rat aortic rings = settings: for effect on calcium content / calcification of rat aortic rings: peptide fragment 100 nmol L^−1, 7 days
[1] = test system: human aortic smooth muscle cells (hAoSMCs); test: Calcification of cultivated human aortic smooth muscle cells in calcifying medium (Ca2+ content); type: cell-based; settings: for effect on calcium content / calcification of hAoSMCs: peptide fragment 100 nmol L^−1, 7 days
Experimental: Cell culture and calcification induction in human aortic smooth muscle cells: Human aortic smooth muscle cells (hAoSMCs) (Promocell, Heidelberg, Germany) were cultivated in smooth muscle cell medium (Promocell, Heidelberg, Germany). The hAoSMCs were seeded in 48 well plates (5×10^3 cells/well) at 80% confluence. Dulbecco's modified Eagle's medium (DMEM) containing 25 mmol L^−1 glucose supplemented with 2.5% fetal calf serum and 2.8 mmol L^−1 phosphate were used to induce calcification (calcifying medium, CM). The calcifying medium was supplemented with CBF (max. concentration 100 pmol L^−1) or CBF fragments (100 nmol L^−1). As reference medium, DMEM containing 25 mmol L^−1 glucose supplemented with 2.5% fetal calf serum and 0.9 mmol L^−1 phosphate were used (non-calcifying medium, NCM). The hAoSMCs were incubated for 7 days while the incubation medium was replaced after 48 h.
Measurement of calcium content: For determination of calcium content, cells or aortic rings were washed 3 times with PBS without calcium. Aortic rings were dried and weighed. Dried aortic rings and cells were decalcified with 0.1 M HCl for 24 h, and the calcium content in the supernatant was determined by the o-cresolphthalein complexone method (Clinical Chemistry Assay Kit/Calcium, County Antrim, UK) according to the manufacturer's protocol. Cell content was extracted in 0.1 M NaOH 0.1% sodium dodecyl sulfate (SDS), and protein content was measured by the bicinchoninic acid (BCA) protein assay method (Thermo Fisher Scientific, Germany). The calcium content was normalized to total protein for cells or dry weight for aortic rings.

VDN rats = test: VDN (vitamin D3 plus nicotine) rat model of elastocalcinosis: aortic calcium, von Kossa staining, pulse pressure; type: in vivo; settings: for calcified surface of the aortas, Von Kossa staining (Example 3 peptide comparison) / calcium content of the aortas (Example 3 peptide comparison) / pulse pressure (Example 3 peptide comparison): VDN animals, versus control animals; for calcified surface of the aortas, Von Kossa staining (Example 3 peptide comparison): FIG. 5b; for calcium content of the aortas (Example 3 peptide comparison): FIG. 5c; for pulse pressure (Example 3 peptide comparison): FIG. 5a
Experimental: Ex vivo and calcification of rat aortic rings: The thoracic aorta of 8-13 weeks old male Wistar-rats were gently dissected and were cut in 3-4 mm segments. The endothelial layer of the aortic ring was manually damaged by scratching using a conventional pipette tip. The aortic rings were incubated with DMEM containing 25 mmol L^−1 glucose supplemented with 2.5% fetal calf serum and 2.8 mmol L^−1 phosphate to induce calcification. The calcification medium was supplemented with CBF (max. concentration 1 μmol L^−1) or CBF fragments (100 nmol L^−1). As reference medium, DMEM containing 25 mmol L^−1 glucose supplemented with 2.5% fetal calf serum and 0.9 mmol L^−1 phosphate were used (non-calcifying medium, NCM). The aortic rings were incubated for 7 days while the medium was replaced after 48 h. Effect of CBF in an animal model with enhanced arterial calcification: An animal model of elastocalcinosis with proven increased arterial calcification (Niederhoffer et al., “Aortic calcification produced by vitmin D3 plus nicotine”, J. Vasc. Res. 34, 386-98, 1997) was chosen to assay the effects of CBF in vivo. Animal experiments were approved by the regional ethics committee “Comité d'éthique pour I'expérimentation animale Languedoc Roussillon N°36”, with the agreement number APAFIS 2018072715539434#17270v4, and conformed to the Guide for the Care and Use of Laboratory Animals, NIH (National Academies Press US, 8th edition, 2011). Three groups of 6 weeks old Wistar rats (Charles River Laboratories, L'Arbresle, France) were given a regular rat chow (A04, Safe, Villemoisson-sur-Orge, France) and spring water (Mont Roucous®, France; calcium 60 μM) ad libitum for one week before experiments. Two groups received CBF (31 μg kg^−1 per day) or its vehicle (saline) infused through an osmotic pump (Alzet 2004, Charles River, France) implanted under the skin. CBF treatment was initiated 3 or 4 days before induction of elastocalcinosis (vitamin D3 plus nicotine, or VDN rats) with a single injection of vitamin D3 (300,000 IU kg^−1, i.m.) and two gavages of nicotine (25 mg kg^−1, 5 ml kg^−1) on the same day, as previously described ^47.
Untreated rats served as control rats (sham operation and saline administration). Four weeks later, rats were anaesthetized (ketamine-xylazine), and a catheter was inserted into the right carotid artery for blood pressure measurement. After 10-15 min of equilibration, systolic, diastolic, mean arterial, and pulse (systolic-diastolic) pressures were determined. The aorta was gently dissected, adventitial fat removed, and cut into segments (3-4 mm) for further analysis.
Histological calcification staining and immunofluorescence staining: Aortic rings were placed in 1 ml of 4% formaldehyde for 1 h to prepare for histological and immunohistochemical staining. The rings were dehydrated and embedded in paraffin and 5 μm slices were prepared by a microtome (Leica RM 2250, Wetzlar, Germany). The slices were placed on a glass slide, deparaffinized in xylene, and dehydrated in decreasingly concentrated sopropanol solutions before staining. Von Kossa staining was performed to visualize calcified areas of the aortic rings. The aortic ring slides were incubated with 5% silver nitrate in the presence of UV light at 405 nm for 1 h, washed three times with double-distilled water (ddH2O), incubated in the presence of 5% sodium thiosulfate in water for 1 min, and washed three times with ddH2O. Next, nuclear fast red (Merck; Darmstadt, Germany) was added to the slides for 5 min. The slides were then rinsed, dehydrated with ethanol, incubated for 5 min in xylol, and covered with Vitro-Clud (R. Langenbrinck; Emmendingen, Germany). For immunohistochemical analyses, sections were blocked with blocking solution (1% bovine serum albumin (BSA)) for 30 min at room temperature. […]

QEEE (listed as Homo sapiens) [CBF 04-07, amino acids 4-7 of CBF]
effect on calcium content / calcification of rat aortic rings (rat aortic rings; calcifying medium): strongest inhibition
effect on calcium content / calcification of hAoSMCs [1]: strongest inhibition

LEGQE EEEDN (LEGQEEEEDN; listed as Homo sapiens) [CBF1, amino acids 1-10 of CBF]
calcified surface of the aortas, Von Kossa staining (Example 3 peptide comparison) (VDN rats): even more pronounced decrease
calcium content of the aortas (Example 3 peptide comparison) (VDN rats): even more pronounced decrease
effect on calcium content / calcification of rat aortic rings (rat aortic rings; calcifying medium): significantly decreased the calcium content
effect on calcium content / calcification of hAoSMCs [1]: significantly decreased the calcium content

EEDN (listed as Homo sapiens) [CBF 07-10, amino acids 7-10 of CBF]
effect on calcium content / calcification of rat aortic rings (rat aortic rings; calcifying medium): inhibitory effect on vascular calcification
effect on calcium content / calcification of hAoSMCs [1]: inhibitory effect on vascular calcification

LEGQE (listed as Homo sapiens) [CBF 01-05, amino acids 1-5 of CBF]
effect on calcium content / calcification of rat aortic rings (rat aortic rings; calcifying medium): significant reduction of calcification
effect on calcium content / calcification of hAoSMCs [1]: significant reduction of calcification

GQEE (listed as Homo sapiens) [CBF 03-06, amino acids 3-6 of CBF]
effect on calcium content / calcification of rat aortic rings (rat aortic rings; calcifying medium): inhibitory effect on vascular calcification
effect on calcium content / calcification of hAoSMCs [1]: inhibitory effect on vascular calcification

EEEDN RDSSM (EEEDNRDSSM; listed as Homo sapiens) [CBF fragment 06-15, amino acids 06-15 of CBF]
effect on calcium content / calcification of rat aortic rings (rat aortic rings; calcifying medium): no significant effect
effect on calcium content / calcification of hAoSMCs [1]: no significant effect

LEGQ (listed as Homo sapiens) [CBF 01-04, amino acids 1-4 of CBF]
effect on calcium content / calcification of rat aortic rings (rat aortic rings; calcifying medium): inhibitory effect on vascular calcification
effect on calcium content / calcification of hAoSMCs [1]: inhibitory effect on vascular calcification

LEGQEEEEDNRDSSMKLSF [CBF, LEGQE EEEDN RDSSM KLSF]
Ca2+ content in vessels of treated VDN rats compared to untreated animals (VDN rats; 31 μg kg^−1 per day via osmotic pump for 4 weeks): significantly reduced
pulse pressure (Example 3 peptide comparison) (VDN rats): significantly lower pulse pressure
calcified surface of the aortas, Von Kossa staining (Example 3 peptide comparison) (VDN rats): decreased calcified surface
calcium content of the aortas (Example 3 peptide comparison) (VDN rats): decrease in calcium content
reduction of pulse pressure (VDN rats; VDN rats, 31 μg kg^−1 per day for 4 weeks): 63%
decrease of calcified surface of aorta (von Kossa staining) (VDN rats; VDN rats, 31 μg kg^−1 per day via osmotic pump for 4 weeks): 70%
pulse pressure (VDN rats; VDN rats, chronic treatment 4 weeks, untreated VDN 81±6): 53±3
arterial pressure in VDN animals (VDN rats; chronic treatment in vivo, 4 weeks): significant decrease
pEC50 (rat aortic rings): ~10.00
threshold concentration for reducing calcification of rat aortic rings (rat aortic rings; aortic rings ex vivo, calcifying medium, 7 days, Ca content): ~0.01 nmol/L
reduction in the calcified area of aortic rings (von Kossa staining) (rat aortic rings; calcifying medium, CBF 100 nM): 40%
threshold concentration for decreasing calcification in hAoSMCs ([1]; hAoSMCs, 7 days, Ca2+ content): ~1 amol L^−1

EEEDN (listed as Homo sapiens) [CBF 06-10, amino acids 6-10 of CBF]
effect on calcium content / calcification of rat aortic rings (rat aortic rings; calcifying medium): significant reduction of calcification
effect on calcium content / calcification of hAoSMCs [1]: significant reduction of calcification

EEEE (listed as Homo sapiens) [CBF 05-08, amino acids 5-8 of CBF]
effect on calcium content / calcification of rat aortic rings (rat aortic rings; calcifying medium): strongest inhibition
effect on calcium content / calcification of hAoSMCs [1]: strongest inhibition

CBF2: CBF fragment comprising the amino acids 11-19 (RDSSMKLSF; listed as Homo sapiens)
pulse pressure (Example 3 peptide comparison) (VDN rats): no effect
calcified surface of the aortas, Von Kossa staining (Example 3 peptide comparison) (VDN rats): no effect
calcium content of the aortas (Example 3 peptide comparison) (VDN rats): no effect
effect on calcium content / calcification of rat aortic rings (rat aortic rings; calcifying medium): no significant effect
effect on calcium content / calcification of hAoSMCs [1]: no significant effect

EGQE (listed as Homo sapiens) [CBF 02-05, amino acids 2-5 of CBF]
effect on calcium content / calcification of rat aortic rings (rat aortic rings; calcifying medium): inhibitory effect on vascular calcification
effect on calcium content / calcification of hAoSMCs [1]: inhibitory effect on vascular calcification

EEED (listed as Homo sapiens) [CBF 06-09, amino acids 6-9 of CBF]
effect on calcium content / calcification of rat aortic rings (rat aortic rings; calcifying medium): strongest inhibition
effect on calcium content / calcification of hAoSMCs [1]: strongest inhibition
